What was measured:
Type in all cases: biochemical
[1] = system: nucleotides G, C, and A (Sequence GA, Sequence CG, Sequence AG); assay: Exclusivity of the other nucleotides (G, C, and A), elongation luminescence; conditions: CG, AG, luminescence normalized to dCTP, dGTP, dTTP as 1
Procedure: (§1) Incorporation into nucleic acid was evaluated as follows. First, one of the above sequences was used as a target. Next, the primer was made to complementarily bind to the target. Then, an elongation experiment was carried out using the respective nucleic acid substrates for that sample. The synthesized nucleic acid substrate requires an affinity (complementary characteristics) with nucleotide T, and exclusivity of the other nucleotides (G, C, and A). The affinity with nucleotide T was evaluated using the Sequence TG and the primer. The exclusivity of the other nucleotides (G, C, and A) was evaluated using the respective Sequence GA, Sequence CG, and Sequence AG, and the primer. In addition, Sequence 5T was used for the evaluation of an ability of continuous incorporation into nucleotide T.
(§2) A sequencing method using a stepwise chemical reaction is described below. First, 35 μL of ultrapure water, 5 μL of oligo DNA (10 μM) of analysis object (target), and 5 μL of a primer (20 μM) were mixed with 5 μL of a hybridization buffer (10 mM Tris-Acetate, 20 mM Mg-Acetate, pH 7.75) (a sample solution: the final volume was 50 μL). Then, the sample solution was heated at 94° C. for 20 seconds, and reacted at a Tm temperature of the primer for 2 minutes. After that, 0.5 μL, (target: […], primer: […]) of this sample solution, 20 of a luminescence reagent which is designated in Condition 2 of Table 1, and 0.2 μL of a polymerase enzyme (the final concentration: 0.05 U/4) were mixed to prepare a reaction reagent (the final volume was 20.7 μL). To this reaction reagent was added 0.4 μL of 100 μM nucleic acid substrate (the final concentration 2 μM). When nucleic acid elongation occurs, bioluminescence derived from pyrophosphate of the elongation reaction product can be observed. The reaction has a luminescence peak a few seconds after the reaction initiation. […] This luminescence peak value is virtually proportional to the amount of generated pyrophosphate. Measurement of the peak value enables a degree of nucleic acid elongation to be estimated.
Next, with regard to the respective synthetic substrates, the exclusivity of the other nucleotides (G, C, and A) was assessed using each of Sequence GA, Sequence CG, and Sequence AG and the primer. […] In addition, a background luminescence component of the respective substrates was compensated by taking its difference into account in a manner similar to that of the preceding figures.

Sequence S1 = assay: Sequence analysis by stepwise chemical reaction (pyrogram), ATP sulfurylase system, Condition 3; conditions: Sequence S1 (maximum two consecutive nucleotides); final concentration 2 μM
Procedure: Next, by using the developed substrates, nucleotide sequences were analyzed. FIG. 15 is pyrograms showing the results of sequence analysis using synthetic nucleotide A3d as a substitute for dATP in a sequencing method using a stepwise chemical reaction. The analyzed oligo Sequence S1 and a primer […] are described below.
Of note is that the Sequence P2 represents a primer sequence. This primer can complementarily bind to the underlined portion of the above Sequence S1. In addition, reagent conditions used for the sequence analysis were designated in Condition 3 of Table 1.
At the bottom of each diagram, the injected nucleic acid substrate species (the injected nucleotide type) were designated. Among the species, the substrate represented by “A” is A3d in (1) and dATPαS in (2), respectively. Also, at the top, nucleotide types which were incorporated in this oligo were designated. Specifically, the nucleotide types represent a complementary strand sequence that is an upstream sequence of the portion (the underlined portion of the Sequence S1) which complementarily binds to the primer P2. […] In addition, the broken lines represent standard values which convert the amount of the resulting luminescence into the number of nucleotides. For example, with regard to the above “CC”, the amount of luminescence equivalent to two nucleotides was observed. […]

[2] = system: 5 consecutive nucleotides of T (Sequence 5T); assay: Ability of incorporation into consecutive nucleotides of T (Sequence 5T), three consecutive injections; conditions: for Continuous incorporation into 5 consecutive T (luminescence derived from incomplete elongation): three injections
Procedure: as §1, §2
Next, by using Sequence 5T, the ability of incorporation of the respective synthetic substrates into consecutive nucleotides of T was evaluated by the following procedure. The reaction reagent was prepared by using Sequence 5T as a target oligo in the same manner as in the case of evaluation of elongation of one nucleotide as described before. In this case, a target oligo 111 and a primer 112 form a complementary strand binding as depicted in FIG. 11(1). Due to the above, when dATP is dispensed into this reaction reagent as a substrate, five molecules of the substrate are consecutively elongated per target molecule as a primer having the substrate at the 3′ end 113, thereby releasing five molecules of pyrophosphate. If the elongation for all the five nucleotides is not completed, a portion of the nucleotide T remains in a single-stranded state. Because of this, when substrate dATP is dispensed again, the portion is elongated only in the case where a portion of incomplete elongation remains. Therefore, the release of pyrophosphate can be detected as luminescence. […] In addition, substrate dCTP, which is complementary to nucleotide G 114, was subsequently dispensed twice to detect luminescence. […]

Compound	Exclusivity of the other nucleotides (G, C, and A) [1]	Sequence analysis result as substitute for dATP (Sequence S1)	Rate of Incomplete Elongation after the First Injection (%) ([2]; 5 consecutive nucleotides, final concentration 4 μM, E1 = luminescence of 2nd and 3rd injections / total of 1st to 3rd)	Rate of Incomplete Elongation after the Second Injection (%) ([2]; 5 consecutive nucleotides, final concentration 4 μM, E2 = luminescence of 3rd injection / total of 1st to 3rd)	Continuous incorporation into 5 consecutive T (luminescence derived from incomplete elongation) ([2]; final concentration 2 μM, then dCTP)	Continuous incorporation into 5 consecutive T (luminescence derived from incomplete elongation) ([2]; final concentration 4 μM (substrate amount doubled))
Nc1ncnc2c1c(/C=C/C(=O)NCCc1ccncc1)cn2[C@H]1CC(O)[C@@H](COP(=O)(O)OP(=O)(O)OP(=O)(O)O)O1 (stereo partly shown) [A3d]	excellent exclusivity	can be used for a nucleotide sequence analysis				
Nc1ncnc2c1ncn2[C@H]1C[C@H](O)[C@@H](COP(O)(=S)OP(=O)(O)OP(=O)(O)O)O1 (stereo partly shown) [dATPαS]		can be used for a nucleotide sequence analysis	36.8 ± 7.8%	13.6 ± 5.1%	luminescence derived from incomplete elongation was detected even at the third injection	luminescence derived from incomplete elongation was detected at the third injection
